Consider 3 compounds from patent US12528759B2, “Crystalline forms of bempedoic acid” (SYNTHON B.V., priority 2019, dated 2026).

A short description of data set [1]: Flowability and stickiness of the solid form. Format: physicochemical.
Data set [2] is described as follows: Water content of the crystalline form under extreme high humidity. Format: physicochemical.
The nature of data set [3]: Stability of the crystalline form when dried in oven. The following applies: e.g. 40° C. It counts as physicochemical.
A short description of a further data set: Solubility. Format: physicochemical.
For data set [4] the following is noted: prior-art solid form of WO2018218147; cited from earlier work.

SMILES strings stand for the structures. Read-outs that look alike come from different tables or passages of the source.

In the case of `CC(C)(CCCCCC(O)CCCCCC(C)(C)C(=O)O)C(=O)O` [Form A, 8-Hydroxy-2,2,14,14-tetramethylpentadecanedioic acid], in data set [1], the flowability result is reported as “good” and the stickiness result is “not sticky”.

As to `CC(C)(CCCCCC(O)CCCCCC(C)(C)C(=O)O)C(=O)O` [Form B, 8-Hydroxy-2,2,14,14-tetramethylpentadecanedioic acid], the “water content change when subjected to extreme high level of humidity” value in data set [2] (70-90% relative humidity) is reported as “did not change”. Besides, in data set [2] (humidity above 70% relative humidity), the “water absorption or loss when subjected to extreme conditions” value is “does not absorb or lose water”. In addition, the “stability when dried in oven” value in data set [3] was “stable”. Also, the solubility result in “Solubility” is recorded as “good”.

As to `CC(C)(CCCCCC(O)CCCCCC(C)(C)C(=O)O)C(=O)O` [solid form of Bempedoic acid, 8-Hydroxy-2,2,14,14-tetramethylpentadecanedioic acid], in data set [4], the flow characteristics entry was “poor” and the stickiness result is “very sticky”.
